{"source": "patent US20260374756A1", "about": "“HETEROCYCLIC COMPOUNDS AS INHIBITORS OF MONOACYLGLYCEROL LIPASE (MAGL)” (Hoffmann-La Roche Inc., priority 2022, published 2026)", "note": "pIC50: −log10 of the molar value."}
{"target": "T1, hMAGL (Homo sapiens, UniProt Q99685)", "T1 sequence (Q99685 1-303)": "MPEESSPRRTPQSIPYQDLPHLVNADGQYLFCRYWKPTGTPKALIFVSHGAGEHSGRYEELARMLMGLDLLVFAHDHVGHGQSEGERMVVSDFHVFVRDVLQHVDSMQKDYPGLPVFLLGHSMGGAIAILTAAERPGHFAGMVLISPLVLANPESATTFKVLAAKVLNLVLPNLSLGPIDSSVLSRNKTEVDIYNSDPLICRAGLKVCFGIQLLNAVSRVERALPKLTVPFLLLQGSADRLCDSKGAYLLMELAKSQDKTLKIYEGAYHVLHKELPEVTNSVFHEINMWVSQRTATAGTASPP", "assay": "2-AG assay: MAGL inhibition, hydrolysis of 2-arachidonoylglycerol to arachidonic acid followed by mass spectrometry", "type": "biochemical", "how_it_was_run": "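MAGL preincubated with compound 15 min at RT in 50 mM Tris, 1 mM EDTA, 0.01% Tween-20, 2.5% DMSO; reaction started with 8 μM 2-AG (final), […], 30 min at RT. Quenched with acetonitrile containing d8-arachidonic acid; arachidonic acid quantified by RapidFire SPE-triple quad MS as arachidonic acid/d8 ratio.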"}
{"smiles": "O=C(N1CC2(CC(n3cnc(C4CC4)n3)C2)C1)N1CC2(CN(Cc3noc(C(F)(F)F)n3)C2)C1", "note": "[Example 323, [6-(3-cyclopropyl-1,2,4-triazol-1-yl)-2-azaspiro[3.3]heptan-2-yl]-[6-[[5-(trifluoromethyl)-1,2,4-oxadiazol-3-yl]methyl]-2,6-diazaspiro[3.3]heptan-2-yl]methanone]", "pIC50": 7.44}
{"smiles": "N=S(=O)(c1cnn(CC2CC3(C2)CN(C(=O)N2CC4(CC(n5cnc(C(F)F)n5)C4)C2)C3)c1)C(F)(F)F", "note": "(stereo not drawn) [Example 324, [6-[3-(difluoromethyl)-1,2,4-triazol-1-yl]-2-azaspiro[3.3]heptan-2-yl]-[6-[[4-(trifluoromethylsulfonimidoyl)pyrazol-1-yl]methyl]-2-azaspiro[3.3]heptan-2-yl]methanone]", "pIC50": 7.59}
{"smiles": "O=C(N1CC2(CC(Cn3ncnc3C(F)(F)F)C2)C1)N1CC2(CC(n3cnc(C4(O)CC4)n3)C2)C1", "note": "[Example 325, [6-[3-(1-hydroxycyclopropyl)-1,2,4-triazol-1-yl]-2-azaspiro[3.3]heptan-2-yl]-[6-[[5-(trifluoromethyl)-1,2,4-triazol-1-yl]methyl]-2-azaspiro[3.3]heptan-2-yl]methanone]", "pIC50": 7.64}
{"smiles": "O=C(N1CC2(CC(Cc3nc(C(F)(F)F)c[nH]3)C2)C1)N1CC2(CC(n3cnc(C(F)F)n3)C2)C1", "note": "[Example 326, [6-[3-(difluoromethyl)-1,2,4-triazol-1-yl]-2-azaspiro[3.3]heptan-2-yl]-[6-[[4-(trifluoromethyl)-1H-imidazol-2-yl]methyl]-2-azaspiro[3.3]heptan-2-yl]methanone]", "pIC50": 7.65}
{"smiles": "CS(=O)(=O)c1cnn(CC2CC3(C2)CN(C(=O)N2CC4(CC(n5cnc(C(F)(F)F)n5)C4)C2)C3)c1", "note": "[Example 327, [6-[(4-mesylpyrazol-1-yl)methyl]-2-azaspiro[3.3]heptan-2-yl]-[6-[3-(trifluoromethyl)-1,2,4-triazol-1-yl]-2-azaspiro[3.3]heptan-2-yl]methanone]", "pIC50": 7.65}
{"smiles": "O=C(N1CC2(CC(n3cnc(C(F)(F)F)n3)C2)C1)N1CC2(CN(Cc3nc(C4(C(F)(F)F)CC4)no3)C2)C1", "note": "[Example 328, [6-[[3-[1-(trifluoromethyl)cyclopropyl]-1,2,4-oxadiazol-5-yl]methyl]-2,6-diazaspiro[3.3]heptan-2-yl]-[6-[3-(trifluoromethyl)-1,2,4-triazol-1-yl]-2-azaspiro[3.3]heptan-2-yl]methanone]", "pIC50": 7.83}
{"smiles": "O=C(N1CC2(CCN(Cc3cc(C(F)(F)F)no3)CC2)C1)N1CC2(CC(n3cnc(C4CC4)n3)C2)C1", "note": "[Example 329, [6-(3-cyclopropyl-1,2,4-triazol-1-yl)-2-azaspiro[3.3]heptan-2-yl]-[7-[[3-(trifluoromethyl)isoxazol-5-yl]methyl]-2,7-diazaspiro[3.5]nonan-2-yl]methanone]", "pIC50": 7.86}
{"smiles": "Cn1nc(CC2CC3(C2)CN(C(=O)N2CC4(CC(n5cnc(C6(N)CC6)n5)C4)C2)C3)cc1C(F)(F)F", "note": "[Example 330, [6-[3-(1-aminocyclopropyl)-1,2,4-triazol-1-yl]-2-azaspiro[3.3]heptan-2-yl]-[6-[[l-methyl-5-(trifluoromethyl)pyrazol-3-yl]methyl]-2-azaspiro[3.3]heptan-2-yl]methanone]", "pIC50": 7.93}
{"smiles": "O=C(N1CC2(CC(Cc3ncn(CC(F)(F)F)n3)C2)C1)N1CC2(CC(n3cnc(C(F)(F)F)n3)C2)C1", "note": "[Example 331, [6-[[1-(2,2,2-trifluoroethyl)-1,2,4-triazol-3-yl]methyl]-2-azaspiro[3.3]heptan-2-yl]-[6-[3-(trifluoromethyl)-1,2,4-triazol-1-yl]-2-azaspiro[3.3]heptan-2-yl]methanone]", "pIC50": 7.93}
{"smiles": "CS(=O)(=O)c1cnn(CC2CC3(C2)CN(C(=O)N2CC4(CC(n5cnc(C6CC6)n5)C4)C2)C3)c1", "note": "[Example 332, [6-(3-cyclopropyl-1,2,4-triazol-1-yl)-2-azaspiro[3.3]heptan-2-yl]-[6-[(4-mesylpyrazol-1-yl)methyl]-2-azaspiro[3.3]heptan-2-yl]methanone]", "pIC50": 7.94}
{"smiles": "O=C(N1CC2(CC(Cn3ncnc3C(F)(F)F)C2)C1)N1CC2(CC(n3cnc(C(F)(F)F)n3)C2)C1", "note": "[Example 333, [6-[3-(trifluoromethyl)-1,2,4-triazol-1-yl]-2-azaspiro[3.3]heptan-2-yl]-[6-[[5-(trifluoromethyl)-1,2,4-triazol-1-yl]methyl]-2-azaspiro[3.3]heptan-2-yl]methanone]", "pIC50": 7.99}
{"smiles": "O=C(N1CC2(CC(Cc3cc(C(F)F)n[nH]3)C2)C1)N1CC2(CC(n3cnc(C(F)F)n3)C2)C1", "note": "[Example 334, [6-[[3-(difluoromethyl)-1H-pyrazol-5-yl]methyl]-2-azaspiro[3.3]heptan-2-yl]-[6-[3-(difluoromethyl)-1,2,4-triazol-1-yl]-2-azaspiro[3.3]heptan-2-yl]methanone]", "pIC50": 8.01}
{"smiles": "O=C(N1CC2(CC(Cc3n[nH]c(C4(C(F)(F)F)CC4)n3)C2)C1)N1CC2(CC(n3cnc(C(F)F)n3)C2)C1", "note": "[Example 335, [6-[3-(difluoromethyl)-1,2,4-triazol-1-yl]-2-azaspiro[3.3]heptan-2-yl]-[6-[[5-[1-(trifluoromethyl)cyclopropyl]-1H-1,2,4-triazol-3-yl]methyl]-2-azaspiro[3.3]heptan-2-yl]methanone]", "pIC50": 8.04}
{"smiles": "O=C(N1CC2(CC(Cc3cn(CC(F)(F)F)nn3)C2)C1)N1CC2(CC(n3cnc(C(F)(F)F)n3)C2)C1", "note": "[Example 336, [6-[[1-(2,2,2-trifluoroethyl)triazol-4-yl]methyl]-2-azaspiro[3.3]heptan-2-yl]-[6-[3-(trifluoromethyl)-1,2,4-triazol-1-yl]-2-azaspiro[3.3]heptan-2-yl]methanone]", "pIC50": 8.05}
{"smiles": "O=C(N1CC2(CC(Cc3nc(C(F)(F)F)c[nH]3)C2)C1)N1CC2(CC(n3cnc(C4(O)CC4)n3)C2)C1", "note": "[Example 337, [6-[3-(1-hydroxycyclopropyl)-1,2,4-triazol-1-yl]-2-azaspiro[3.3]heptan-2-yl]-[6-[[4-(trifluoromethyl)-1H-imidazol-2-yl]methyl]-2-azaspiro [3.3]heptan-2-yl]methanone]", "pIC50": 8.21}
{"smiles": "O=C(N1CC2(CC(n3cnc(C4CC4)n3)C2)C1)N1CC2(CN(Cc3nc(C4(C(F)(F)F)CC4)no3)C2)C1", "note": "[Example 338, [6-(3-cyclopropyl-1,2,4-triazol-1-yl)-2-azaspiro[3.3]heptan-2-yl]-[6-[[3-[1-(trifluoromethyl)cyclopropyl]-1,2,4-oxadiazol-5-yl]methyl]-2,6-diazaspiro[3.3]heptan-2-yl]methanone]", "pIC50": 8.39}
{"smiles": "O=C(N1CC2(CC(Cc3ncn(CC(F)(F)F)n3)C2)C1)N1CC2(CC(n3cnc(C4CC4)n3)C2)C1", "note": "[Example 339, [6-(3-cyclopropyl-1,2,4-triazol-1-yl)-2-azaspiro[3.3]heptan-2-yl]-[6-[[1-(2,2,2-trifluoroethyl)-1,2,4-triazol-3-yl]methyl]-2-azaspiro[3.3]heptan-2-yl]methanone]", "pIC50": 8.43}
{"smiles": "O=C(N1CC2(CC(Cc3cnn(CC(F)(F)F)n3)C2)C1)N1CC2(CC(n3cnc(C(F)(F)F)n3)C2)C1", "note": "[Example 340, [6-[[2-(2,2,2-trifluoroethyl)triazol-4-yl]methyl]-2-azaspiro[3.3]heptan-2-yl]-[6-[3-(trifluoromethyl)-1,2,4-triazol-1-yl]-2-azaspiro[3.3]heptan-2-yl]methanone]", "pIC50": 8.44}
